ChEMBL document CHEMBL1152576, “E-Combretastatin and E-resveratrol structural modifications: antimicrobial and cancer cell growth inhibitory beta-E-nitrostyrenes” (Bioorg Med Chem, 2009)
≈ marks a conversion by molar mass, not a printed value. Calls of active or inactive are those of the source. The rule behind the calls is not given here.

Experiments:
[1] = system: P388; assay: Cytotoxicity against mouse P388 cells after 48 hrs by sulforhodamine B assay; format: functional; settings: for EC50: P388, 48 h, read-out: ED50 (the source's name)
[2] = system: BXPC-3; assay: Cytotoxicity against human BxPC3 cells after 48 hrs by sulforhodamine B assay; format: functional
[3] = system: MCF7; assay: Cytotoxicity against human MCF7 cells after 48 hrs by sulforhodamine B assay; format: functional
[4] = system: SF-295; assay: Cytotoxicity against human SF295 cells after 48 hrs by sulforhodamine B assay; format: functional
[5] = system: SF-268; assay: Cytotoxicity against human SF268 cells after 48 hrs by sulforhodamine B assay; format: functional
[6] = system: NCI-H460; assay: Cytotoxicity against human NCI-H460 cells after 48 hrs by sulforhodamine B assay; format: functional
[7] = system: KM-20L2; assay: Cytotoxicity against human KM20L2 cells after 48 hrs by sulforhodamine B assay; format: functional
[8] = system: DU-145; assay: Cytotoxicity against human DU145 cells after 48 hrs by sulforhodamine B assay; format: functional
[9] = system: SK-MEL-5; assay: Cytotoxicity against human SK-MEL-5 cells after 48 hrs by sulforhodamine B assay; format: functional
[10] = system: OVCAR-3; assay: Cytotoxicity against human OVCAR-3 cells after 48 hrs by sulforhodamine B assay; format: functional
[11] = system: A498; assay: Cytotoxicity against human A498 cells after 48 hrs by sulforhodamine B assay; format: functional
[12] = Inhibition of tubulin polymerization
[13] = system: Candida albicans; assay: Antimicrobial activity against Candida albicans ATCC 90028 assessed clear zone in inhibition per disk by CLSI disk diffusion susceptibility assay; format: functional
[14] = system: Cryptococcus neoformans; assay: Antimicrobial activity against Cryptococcus neoformans ATCC 90112 assessed clear zone in inhibition per disk by CLSI disk diffusion susceptibility assay; format: functional
[15] = system: Staphylococcus aureus; assay: Antimicrobial activity against Staphylococcus aureus ATCC 29213 assessed clear zone in inhibition per disk by CLSI disk diffusion susceptibility assay; format: functional
[16] = system: Streptococcus pneumoniae; assay: Antimicrobial activity against Streptococcus pneumoniae ATCC 6303 assessed clear zone in inhibition per disk by CLSI disk diffusion susceptibility assay; format: functional
[17] = system: Enterococcus faecalis; assay: Antimicrobial activity against Enterococcus faecalis ATCC 29212 assessed clear zone in inhibition per disk by CLSI disk diffusion susceptibility assay; format: functional
[18] = system: Micrococcus luteus; assay: Antimicrobial activity against Micrococcus luteus Presque Isle 456 assessed clear zone in inhibition per disk by CLSI disk diffusion susceptibility assay; format: functional
[19] = system: Stenotrophomonas maltophilia; assay: Antimicrobial activity against Stenotrophomonas maltophilia ATCC 13637 assessed clear zone in inhibition per disk by CLSI disk diffusion susceptibility assay; format: functional
[20] = system: Escherichia coli; assay: Antimicrobial activity against Escherichia coli ATCC 25922 assessed clear zone in inhibition per disk by CLSI disk diffusion susceptibility assay; format: functional
[21] = system: Enterobacter cloacae; assay: Antimicrobial activity against Enterobacter cloacae ATCC 13047 assessed clear zone in inhibition per disk by CLSI disk diffusion susceptibility assay; format: functional
[22] = system: Neisseria gonorrhoeae; assay: Antimicrobial activity against Neisseria gonorrhoeae ATCC 49226 assessed clear zone of inhibition measured per disk by CLSI disk diffusion susceptibility assay; format: functional
[23] = system: Candida albicans; assay: Antifungal activity against Candida albicans ATCC 90028 after 48 hrs by broth microdilution susceptibility assay; format: functional; settings: ATCC 90028, 48 h
[24] = system: Cryptococcus neoformans; assay: Antifungal activity against Cryptococcus neoformans ATCC 90112 after 72 hrs by broth microdilution susceptibility assay; format: functional; settings: ATCC 90112, 72 h
[25] = system: Staphylococcus aureus; assay: Antimicrobial activity against Staphylococcus aureus ATCC 29213 by broth microdilution susceptibility assay; format: functional
[26] = system: Streptococcus pneumoniae; assay: Antimicrobial activity against Streptococcus pneumoniae ATCC 6303 by broth microdilution susceptibility assay; format: functional
[27] = system: Enterococcus faecalis; assay: Antimicrobial activity against Enterococcus faecalis ATCC 29212 by broth microdilution susceptibility assay; format: functional
[28] = system: Micrococcus luteus; assay: Antimicrobial activity against Micrococcus luteus Presque Isle 456 by broth microdilution susceptibility assay; format: functional
[29] = system: Stenotrophomonas maltophilia; assay: Antimicrobial activity against Stenotrophomonas maltophilia ATCC 13637 by broth microdilution susceptibility assay; format: functional
[30] = system: Escherichia coli; assay: Antimicrobial activity against Escherichia coli ATCC 25922 by broth microdilution susceptibility assay; format: functional
[31] = system: Enterobacter cloacae; assay: Antimicrobial activity against Enterobacter cloacae ATCC 13047 by broth microdilution susceptibility assay; format: functional
[32] = system: Neisseria gonorrhoeae; assay: Antimicrobial activity against Neisseria gonorrhoeae ATCC 49226 by broth microdilution susceptibility assay; format: functional
[33] = system: Candida albicans; assay: Antifungal activity against Candida albicans ATCC 90028 after 24 hrs by broth microdilution susceptibility assay; format: functional; settings: ATCC 90028, 24 h
[34] = system: Cryptococcus neoformans; assay: Antifungal activity against Cryptococcus neoformans ATCC 90112 after 48 hrs by broth microdilution susceptibility assay; format: functional; settings: ATCC 90112, 48 h
[35] = system: Streptococcus pneumoniae; assay: Antimicrobial activity against Streptococcus pneumoniae ATCC 6303 after 24 hrs by broth microdilution susceptibility assay; format: functional; settings: ATCC 6303, 24 h
[36] = system: Neisseria gonorrhoeae; assay: Antimicrobial activity against Neisseria gonorrhoeae ATCC 49226 after 24 hrs by broth microdilution susceptibility assay; format: functional; settings: ATCC 49226, 24 h

Row | SMILES | GI50 [4] | GI50 [9] | GI50 [10] | GI50 [11] | IC50 [12] | MIC [13] | MIC [14] | MIC [15] | MIC [16] | MIC [17] | MIC [18] | MIC [19] | MIC [20] | MIC [21] | MIC [22] | MIC [23] | MIC [24] | MIC [25] | MIC [26] | MIC [27] | further results
1 | O=[N+]([O-])/C=C/c1ccccc1O | inactive | inactive | inactive | inactive | 4.4 µM | 1.56 µg | 0.78 µg | 25 µg | 1.56 µg | 50 µg | 25 µg | 12.5 µg | 25 µg | 25 µg | <0.78 µg | 16 µg/mL (≈ 96.9 µM) | 8 µg/mL (≈ 48.4 µM) | > 64 µg/mL | 32 µg/mL (≈ 194 µM) | > 64 µg/mL | EC50 [1]: 3.5 µg/mL (≈ 21.2 µM); GI50 ([2]; BXPC-3, 48 h): 1.1 µg/mL (≈ 6.66 µM); GI50 ([3]; MCF7, 48 h): 0.47 µg/mL (≈ 2.85 µM); GI50 ([5]; SF-268, 48 h): 1.2 µg/mL (≈ 7.27 µM); GI50 ([6]; NCI-H460, 48 h): 0.95 µg/mL (≈ 5.75 µM); GI50 ([7]; KM-20L2, 48 h): 1.6 µg/mL (≈ 9.69 µM); GI50 ([8]; DU-145, 48 h): 1 µg/mL (≈ 6.06 µM); MIC [28]: > 64 µg/mL; MIC [29]: 32 µg/mL (≈ 194 µM); MIC [30]: 64 µg/mL (≈ 388 µM); MIC [31]: > 64 µg/mL; MIC [32]: 2 µg/mL (≈ 12.1 µM); MFC [33]: 32 µg/mL (≈ 194 µM); MFC [34]: 32 µg/mL (≈ 194 µM); MBC [35]: > 64 µg/mL; MBC [36]: 2 µg/mL (≈ 12.1 µM)
2 | COc1ccc(/C=C/[N+](=O)[O-])cc1O | inactive | inactive | inactive | inactive | 8.2 µM | 3.12 µg | 0.78 µg | 50 µg | 1.56 µg | >100 µg | >100 µg | 25 µg | 25 µg | 25 µg | <0.78 µg | 16 µg/mL (≈ 82 µM) | 32 µg/mL (≈ 164 µM) | > 64 µg/mL | 64 µg/mL (≈ 328 µM) | > 64 µg/mL | ED50 [1]: inactive; GI50 [2]: inactive; GI50 [3]: inactive; GI50 [5]: inactive; GI50 [6]: inactive; GI50 [7]: inactive; GI50 [8]: inactive; MIC [28]: > 64 µg/mL; MIC [29]: > 64 µg/mL; MIC [30]: > 64 µg/mL; MIC [31]: > 64 µg/mL; MIC [32]: 4 µg/mL (≈ 20.5 µM); MFC [33]: 32 µg/mL (≈ 164 µM); MFC [34]: 32 µg/mL (≈ 164 µM); MBC [35]: > 64 µg/mL; MBC [36]: 4 µg/mL (≈ 20.5 µM)
3 | COc1cc(/C=C/[N+](=O)[O-])cc(OC)c1 | inactive | inactive | inactive | inactive | 3.9 µM | 3.12 µg | 0.78 µg | 6.25 µg | >100 µg | 12.5 µg | 25 µg | >100 µg | >100 µg | >100 µg | 0.78 µg | 16 µg/mL (≈ 76.5 µM) | 16 µg/mL (≈ 76.5 µM) | > 64 µg/mL | 64 µg/mL (≈ 306 µM) | > 64 µg/mL | EC50 [1]: 0.24 µg/mL (≈ 1.15 µM); GI50 ([2]; BXPC-3, 48 h): 1.6 µg/mL (≈ 7.65 µM); GI50 ([3]; MCF7, 48 h): 1.8 µg/mL (≈ 8.6 µM); GI50 ([5]; SF-268, 48 h): 2.3 µg/mL (≈ 11 µM); GI50 ([6]; NCI-H460, 48 h): 2 µg/mL (≈ 9.56 µM); GI50 ([7]; KM-20L2, 48 h): 1.5 µg/mL (≈ 7.17 µM); GI50 ([8]; DU-145, 48 h): 1.5 µg/mL (≈ 7.17 µM); MIC [28]: > 64 µg/mL; MIC [29]: > 64 µg/mL; MIC [30]: > 64 µg/mL; MIC [31]: > 64 µg/mL; MIC [32]: 2 µg/mL (≈ 9.56 µM); MFC [33]: 16 µg/mL (≈ 76.5 µM); MFC [34]: 16 µg/mL (≈ 76.5 µM); MBC [35]: > 64 µg/mL; MBC [36]: 2 µg/mL (≈ 9.56 µM)
